Experiments:
Format in all cases: in vivo, human
[1] = system: essential tremor; experiment: Riboflavin daily in 15 persons over 50 with essential tremor, Fahn-Tolosa-Marin clinical tremor rating; set-up: key to Tremor Score After Rx, L Hand / Tremor Score After Rx, Head / Tremor Score After Rx, R Hand / Tremor Score After Rx, Hands: 0=Normal; 1=Slight; 2=Moderately abnormal; 3=Markedly abnormal; 4=Severely abnormal; settings: for Tremor Score After Rx, Hands: before Rx Hands 1
Description: (§1) 15 persons over the age of 50 were tested, utilizing daily dosages of between 400 and 800 mg of riboflavin. Riboflavin was the only vitamin used for those patients who were on other tremor medications. These patients were continued on them.
Patients were evaluated with arms outstretched, elbows bent and hands near the chin, writing with both hands, drinking holding a cup with either hand, and pouring water with either hand. Evaluation was based on a four-point scale as published by Fahn, Tolosa and Marin, Clinical Rating Scale for Tremor in Parkinson's Disease and Movement Disorders [Williams and Wilkins, 1993].

[2] = system: tremor on action and intention due to Depakote; seizures; experiment: One patient with severe epilepsy and Depakote-induced tremor treated with the inventive vitamin therapy; settings: one patient with severe epilepsy on high dose Depakote
Text: Other conditions that are commonly seen in patients with essential tremor, such as deafness, motion sickness, balance difficulties, and cognitive problems may be benefited by this treatment. Additionally, patients who develop tremors due to the use of medications that cause tremor (such as Depakote and Lithium) may benefit by the use of the inventive vitamin therapy. […] Other neurological conditions, such as epilepsy, when associated with tremor, may be benefited by the inventive vitamin therapy.

[3] = system: essential tremor; experiment: Riboflavin daily in 15 persons over 50 with essential tremor, Fahn-Tolosa-Marin clinical tremor rating; settings: 200 mg to 1000 mg of riboflavin on a daily basis
[4] = Side effects in the 15-person riboflavin test
Description: as §1

[5] = system: essential tremor; experiment: One patient, sequential course of riboflavin with/without coenzyme Q10 and B vitamins, tremor score; set-up: key to tremor score, Head / tremor score, Right Hand / tremor score, Left Hand: 0=Normal; 1=Slight; 2=Moderately abnormal; 3=Markedly abnormal; 4=Severely abnormal
Description: For one patient, before beginning a course of therapy in accordance with the inventive treatment, that patient's tremor score was Head 0, Right Hand 2, Left Hand 3. Treatment commenced for three months as follows:
The tremor score, after three months of treatment, improved to Head 0, Right Hand 1, Left Hand 2. Treatment then continued for an additional three months with an increase in the daily dosage of Riboflavin to 800 mg. The tremor score was then measured to be Head 0, Right Hand 0, Left Hand 1. […] Moreover, if treatment was resumed, there was a return to reduced tremor levels after 2 to 3 days.

[6] = after an additional three months with Riboflavin increased to 800 mg daily, same co-administered vitamins and coenzyme Q10

Cc1cc2nc3c(=O)[nH]c(=O)nc-3n(C[C@H](O)[C@H](O)[C@H](O)CO)c2cc1C [Riboflavin, riboflavin]
Tremor Score After Rx, Hands ([1]; patient # 1, 400 mg daily, 6 wks., concomitant None): Hands 1
Tremor Score After Rx, Head ([1]; patient # 1, 400 mg daily, 6 wks., before Rx Head 2, concomitant tremor medications None): Head 1
Tremor Score After Rx, Hands ([1]; patient # 2, 600 mg daily, 3 mos., concomitant None): Hands 1
Tremor Score After Rx, Head ([1]; patient # 2, 600 mg daily, 3 mos., before Rx Head 2, concomitant None): Head 1
Tremor Score After Rx, Head ([1]; patient # 3, 400 mg daily, 4 wks., before Rx Head 0, concomitant None): Head 0
Tremor Score After Rx, L Hand ([1]; patient # 3, 400 mg daily, 4 wks., before Rx L Hand 4, concomitant None): L Hand 3
Tremor Score After Rx, R Hand ([1]; patient # 3, 400 mg daily, 4 wks., before Rx R Hand 3, concomitant None): R Hand 2
Tremor Score After Rx, Head ([1]; patient # 4, 800 mg daily, 2 wks., before Rx Head 0, concomitant None): Head 0
Tremor Score After Rx, L Hand ([1]; patient # 4, 800 mg daily, 2 wks., before Rx L Hand 3, concomitant None): L Hand 2
Tremor Score After Rx, R Hand ([1]; patient # 4, 800 mg daily, 2 wks., before Rx R Hand 2, concomitant None): R Hand 2
Tremor Score After Rx, Head ([1]; patient # 5, 400 mg daily, 7 mos., before Rx Head 0, concomitant Inderal LA 80 mg.): Head 0
Tremor Score After Rx, L Hand ([1]; patient # 5, 400 mg daily, 7 mos., before Rx L Hand 3, concomitant Inderal LA 80 mg.): L Hand 2
Tremor Score After Rx, R Hand ([1]; patient # 5, 400 mg daily, 7 mos., before Rx R Hand 2, concomitant Inderal LA 80 mg.): R Hand 2
Tremor Score After Rx, Head ([1]; patient # 6, 400 mg daily, 12 mos., before Rx Head 0, concomitant Inderal LA 60): Head 0
Tremor Score After Rx, L Hand ([1]; patient # 6, 400 mg daily, 12 mos., before Rx L Hand 2, concomitant Inderal LA 60): L Hand 1
Tremor Score After Rx, R Hand ([1]; patient # 6, 400 mg daily, 12 mos., before Rx R Hand 2, concomitant Inderal LA 60): R Hand 1
Tremor Score After Rx, Head ([1]; patient # 7, 400 mg daily, 4 wks., before Rx Head 0, concomitant None): Head 0
Tremor Score After Rx, L Hand ([1]; patient # 7, 400 mg daily, 4 wks., before Rx L Hand 2, concomitant None): L Hand 1
Tremor Score After Rx, R Hand ([1]; patient # 7, 400 mg daily, 4 wks., before Rx R Hand 2, concomitant None): R Hand 1
Tremor Score After Rx, Head ([1]; patient # 8, 600 mg daily, 4 wks., before Rx Head 0, concomitant Topamax): Head 0
Tremor Score After Rx, L Hand ([1]; patient # 8, 600 mg daily, 4 wks., before Rx L hand 4, concomitant Topamax): L Hand 3
Tremor Score After Rx, R Hand ([1]; patient # 8, 600 mg daily, 4 wks., before Rx R hand 4, concomitant Topamax): R Hand 3
Tremor Score After Rx, Head ([1]; patient # 9, 400 mg daily, 4 wks., before Rx Head 0, concomitant Mysoline, Inderal and Topamax): Head 0
Tremor Score After Rx, L Hand ([1]; patient # 9, 400 mg daily, 4 wks., before Rx L Hand 4, concomitant Mysoline, Inderal and Topamax): L hand 3
Tremor Score After Rx, R Hand ([1]; patient # 9, 400 mg daily, 4 wks., before Rx R Hand 4, concomitant Mysoline, Inderal and Topamax): R Hand 4
Tremor Score After Rx, Head ([1]; patient # 10, 800 mg daily, 4 mos., before Rx Head 0, concomitant Mysoline, Inderal and Topamax): Head 0
Tremor Score After Rx, L Hand ([1]; patient # 10, 800 mg daily, 4 mos., before Rx L Hand 3, concomitant Mysoline, Inderal and Topamax): L Hand 2
Tremor Score After Rx, R Hand ([1]; patient # 10, 800 mg daily, 4 mos., before Rx R Hand 4, concomitant Mysoline, Inderal and Topamax): R Hand 4
Tremor Score After Rx, Head ([1]; patient # 11, 400 mg daily, 1 year, before Rx Head 2, concomitant None): Head 1
Tremor Score After Rx, L Hand ([1]; patient # 11, 400 mg daily, 1 year, before Rx L Hand 2, concomitant None): L Hand 1
Tremor Score After Rx, R Hand ([1]; patient # 11, 400 mg daily, 1 year, before Rx R Hand 2, concomitant None): R Hand 1
Tremor Score After Rx, Head ([1]; patient # 12, 400 mg daily, 2 wks., before Rx Head not given, concomitant None): Head 2
Tremor Score After Rx, L Hand ([1]; patient # 12, 400 mg daily, 2 wks., before Rx L Hand not given, concomitant None): L Hand 2
Tremor Score After Rx, R Hand ([1]; patient # 12, 400 mg daily, 2 wks., before Rx R hand 2, concomitant None): R Hand 1
Tremor Score After Rx, Head ([1]; patient # 13, 400 mg daily, 3 wks., before Rx Head 0, concomitant None): Head 0
Tremor Score After Rx, L Hand ([1]; patient # 13, 400 mg daily, 3 wks., before Rx L Hand 2, concomitant None): L Hand 1
Tremor Score After Rx, R Hand ([1]; patient # 13, 400 mg daily, 3 wks., before Rx R Hand 2, concomitant None): R Hand 1
Tremor Score After Rx, Head ([1]; patient # 14, 400 mg daily, 5 mos., before Rx Head 0, concomitant None): Head 0
Tremor Score After Rx, L Hand ([1]; patient # 14, 400 mg daily, 5 mos., before Rx L Hand 2, concomitant None): L Hand 1
Tremor Score After Rx, R Hand ([1]; patient # 14, 400 mg daily, 5 mos., before Rx R Hand 2, concomitant None): R Hand 1
Tremor Score After Rx, Head ([1]; patient # 15, 400 mg daily, 1 mo., before Rx Head 0, concomitant None): Head 0
Tremor Score After Rx, R Hand ([1]; patient # 15, 400 mg daily, 1 mo., before Rx R Hand 1, concomitant None): R Hand 1
symptoms after stopping daily intake ([1]; within a few days of stopping the daily high dosage of riboflavin): the symptoms of essential tremor returned
seizure frequency [2]: decreased
tremor on action and intention [2]: significantly improved
effect on symptoms of essential tremor [3]: ameliorates the symptoms of essential tremor
side effect ([4]; general statement on the treatment): bright yellow urine
Side Effects ([4]; patient # 1, 400 mg daily, 6 wks.): None
Side Effects ([4]; patient # 2, 600 mg daily, 3 mos.): None
Side Effects ([4]; patient # 3, 400 mg daily, 4 wks.): None
Side Effects ([4]; patient # 4, 800 mg daily, 2 wks.): None
Side Effects ([4]; patient # 5, 400 mg daily, 7 mos., concomitant Inderal LA 80 mg.): None
Side Effects ([4]; patient # 6, 400 mg daily, 12 mos., concomitant Inderal LA 60): None
Side Effects ([4]; patient # 7, 400 mg daily, 4 wks.): None
Side Effects ([4]; patient # 8, 600 mg daily, 4 wks., concomitant Topamax): None
Side Effects ([4]; patient # 9, 400 mg daily, 4 wks., concomitant Mysoline, Inderal and Topamax): None
Side Effects ([4]; patient # 10, 800 mg daily, 4 mos., concomitant Mysoline, Inderal and Topamax): None
Side Effects ([4]; patient # 11, 400 mg daily, 1 year): None
Side Effects ([4]; patient # 12, 400 mg daily, 2 wks.): None
Side Effects ([4]; patient # 13, 400 mg daily, 3 wks.): None
Side Effects ([4]; patient # 14, 400 mg daily, 5 mos.): None
Side Effects ([4]; patient # 15, 400 mg daily, 1 mo.): None
head and hand findings following treatment ([5]; additional three months with just daily Riboflavin (800 mg) and coenzyme Q10 (1000 mg)): stable head and hand findings
tremor score, Head [5, 6]: 0
tremor score, Left Hand [5, 6]: 1
tremor score, Right Hand [5, 6]: 0
tremor score, Head ([5]; after three months of daily Riboflavin 400 mg + Coenzyme Q10 1000 mg + Thiamine 50 mg + Niacin 50 mg + Pantothenic Acid 50 mg, before Head 0): 0
tremor score, Left Hand ([5]; after three months of daily Riboflavin 400 mg + Coenzyme Q10 1000 mg + Thiamine 50 mg + Niacin 50 mg + Pantothenic Acid 50 mg, before Left Hand 3): 2
tremor score, Right Hand ([5]; after three months of daily Riboflavin 400 mg + Coenzyme Q10 1000 mg + Thiamine 50 mg + Niacin 50 mg + Pantothenic Acid 50 mg, before Right Hand 2): 1
head and hand findings ([5]; thereafter a year with just Riboflavin 800 mg daily): stable head and hand findings
tremor when treatment was missed ([5]; treatment missed for two days or more): prior untreated levels of tremor returned

From patent US20070031394A1, “Method of treating neurological disorders” (priority 2005, published 2007)
